# Publication PMC9928118, “Funneling modulatory peptide design with generative models: Discovery and characterization of disruptors of calcineurin protein-protein interactions” (PLOS Computational Biology, 2023)
# Test system: GST-tagged Cn
# Test: PEPperPRINT peptide microarray binding assay with GST-tagged Cn
# Summary of the method: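 Qualitative binding: peptides printed on a PEPperPRINT microarray were incubated overnight at 4 °C with 1 mg/ml GST-tagged Cn, then detected with Alexa-Fluor 647 anti-GST antibody. Log fluorescence was baseline-corrected, averaged over duplicate spots, Z-normalized and averaged across five repeats.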
# [1] = max over the chip locations listed for the peptide (two spots)
# [2] = mean over the chip locations listed for the peptide (two spots)
# [3] = GST-tagged Cn, max over the spots on the chip (two locations)
# [4] = GST-tagged Cn, mean over the spots on the chip (two locations)
# [5] = max over the spots listed under Location on chip
# [6] = mean over the spots listed under Location on chip
# [7] = GST-tagged Cn, max over the spots named in Location on chip
# [8] = GST-tagged Cn, mean over the spots named in Location on chip
# [9] = GST-tagged Cn, max over the chip locations
# [10] = GST-tagged Cn, mean over the chip locations
# [11] = GST-tagged Cn, max over the chip spots listed under Location on chip
# [12] = GST-tagged Cn, mean over the chip spots listed under Location on chip
sequence,measurement,setting,value
SSRSSSRPARSPERKP [SeqRGA2_Fusarium_oxysporum],Chip Fluorescence (max),[1],4.629
same,Chip Fluorescence (mean),[2],0.8375
SSSSLPTFQFSTPATL [SeqRBM_7341],Chip Fluorescence (max),[3],1.265
same,Chip Fluorescence (mean),[4],-1.213
STAALPKFDFSNPHIS [SeqRBM_9234],Chip Fluorescence (max),[5],2.8681
same,Chip Fluorescence (mean),[6],0.4605
STASLPTFSFSPLAPS [SeqRBMlowT_9999],Chip Fluorescence (max),[5],2.669
same,Chip Fluorescence (mean),[6],-0.6649
STEIIATLFVQVANEY [Seqshuffled_9888],Chip Fluorescence (max),[7],1.433
same,Chip Fluorescence (mean),[8],-0.5855
STKSSGRPSRSPERAS [SeqRGA2_Colletotrichum_sublineola],Chip Fluorescence (max),[5],2.848
same,Chip Fluorescence (mean),[6],-0.8116
STSGTFPQTESSHKKQ [SeqRBMlowT_5831],Chip Fluorescence (max),[7],1.58
same,Chip Fluorescence (mean),[8],0.09302
STSSLPTFSFSPPAPS [SeqRBMlowT_2355],Chip Fluorescence (max),[7],1.468
same,Chip Fluorescence (mean),[8],-0.4662
STSSLPTFSFSPPQPT [SeqRBMlowT_3908],Chip Fluorescence (max),[5],2.68
same,Chip Fluorescence (mean),[6],0.3277
STSSLPTFSFSSLAPS [SeqRBMlowT_2354],Chip Fluorescence (max),[3],1.162
same,Chip Fluorescence (mean),[4],-0.4848
STSSLPTFSFSSPAPS [SeqRBMlowT_801],Chip Fluorescence (max),[9],-0.2979
same,Chip Fluorescence (mean),[10],-1.46
STSSLPTFSFSSPASS [SeqRBMlowT_1605],Chip Fluorescence (max),[9],0.1343
same,Chip Fluorescence (mean),[10],-0.9005
STSSLPTFSFSSPKPQ [SeqRBMlowT_8920],Chip Fluorescence (max),[3],1.216
same,Chip Fluorescence (mean),[4],-1.018
STSSLPTFSFSSPLPS [SeqRBMlowT_3929],Chip Fluorescence (max),[7],1.5
same,Chip Fluorescence (mean),[8],-1.084
STSSLPTFSFSSPLPT [SeqRBMlowT_898],Chip Fluorescence (max),[9],-0.2197
same,Chip Fluorescence (mean),[10],-1.424
STSSLPTFSFSSPLST [SeqRBMlowT_892],Chip Fluorescence (max),[7],1.3512
same,Chip Fluorescence (mean),[8],-0.8669
STSSLPTFSFSSPPPT [SeqRBMlowT_3483],Chip Fluorescence (max),[9],-1.1866
same,Chip Fluorescence (mean),[10],-2.157
STSSLPTFSFSSPPST [SeqRBMlowT_3479],Chip Fluorescence (max),[9],-1.235
same,Chip Fluorescence (mean),[10],-1.867
STSSLPTFSFSSPQPS [SeqRBMlowT_3925],Chip Fluorescence (max),[3],1.1241
same,Chip Fluorescence (mean),[4],-0.7201
STSSLPTFSFSSPQST [SeqRBMlowT_3930],Chip Fluorescence (max),[9],-0.1298
same,Chip Fluorescence (mean),[10],-1.588
STSSLPTFSFSSPVPS [SeqRBMlowT_2358],Chip Fluorescence (max),[9],-0.2537
same,Chip Fluorescence (mean),[10],-3.06
STSSLPTFSFSSPVPT [SeqRBMlowT_3904],Chip Fluorescence (max),[11],0.9816
same,Chip Fluorescence (mean),[12],-1.275
STSSLPTFSFSSPVSH [SeqRBMlowT_1620],Chip Fluorescence (max),[5],3.347
same,Chip Fluorescence (mean),[6],0.3099
STSSLPTFSFSTPPPT [SeqRBMlowT_1617],Chip Fluorescence (max),[3],1.022
same,Chip Fluorescence (mean),[4],-1.34
SVDKHPRVYVATSRED [SeqRBM_4749],Chip Fluorescence (max),[1],4.793
same,Chip Fluorescence (mean),[2],0.8161
SVWENATVRFNFFPDN [Seqshuffled_9917],Chip Fluorescence (max),[5],3.124
same,Chip Fluorescence (mean),[6],1.438
SYLPIIQVRMTDTGEY [SeqRBM_6285],Chip Fluorescence (max),[3],1.118
same,Chip Fluorescence (mean),[4],0.3431
TDHMNPQITISSKEND [SeqRBM_3457],Chip Fluorescence (max),[3],1.164
same,Chip Fluorescence (mean),[4],0.5231
TEWNNPQQIVGPTEGD [SeqRBM_3582],Chip Fluorescence (max),[9],0.1516
same,Chip Fluorescence (mean),[10],-1.002
TFHINPQLHLIVSDAD [SeqCAPN11_Daphnia_magna],Chip Fluorescence (max),[9],-0.5586
same,Chip Fluorescence (mean),[10],-0.9234
TFHLNPQYRITLEDPD [SeqCAPN11_Daphnia_magna_3],Chip Fluorescence (max),[7],1.7985
same,Chip Fluorescence (mean),[8],0.6671
TFHREPQNRLYVLSAV [SeqRBM_456],Chip Fluorescence (max),[9],0.238
same,Chip Fluorescence (mean),[10],-1.007
TFHTNPQYRIKLEEPD [SeqRBMlowT_4495],Chip Fluorescence (max),[1],3.4958
same,Chip Fluorescence (mean),[2],1.049
TFHTNPQYRVNIEDQD [SeqRBM_8967],Chip Fluorescence (max),[7],1.436
same,Chip Fluorescence (mean),[8],0.08694
TFNTNPQYTIQVVWPD [SeqRBM_7110],Chip Fluorescence (max),[9],-0.1833
same,Chip Fluorescence (mean),[10],-1.179
TFTDNPQYTIKLVETD [SeqRBM_9774],Chip Fluorescence (max),[11],0.9523
same,Chip Fluorescence (mean),[12],0.09387
TFWANPQFKIRLEEPD [SeqRBMlowT_2213],Chip Fluorescence (max),[3],1.142
same,Chip Fluorescence (mean),[4],-0.04147
TFWANPQFRIKLEEPD [SeqRBMlowT_4612],Chip Fluorescence (max),[9],0.1586
same,Chip Fluorescence (mean),[10],-0.3624
TFWANPQYKIHLEEED [SeqRBMlowT_4653],Chip Fluorescence (max),[1],4.098
same,Chip Fluorescence (mean),[2],0.694
TFWDNPQYQIKLNDPD [SeqRBM_8698],Chip Fluorescence (max),[7],1.7877
same,Chip Fluorescence (mean),[8],-0.1207
TFWHNPQYVINLEDPD [SeqCAPN11_Anopheles_dirus],Chip Fluorescence (max),[7],1.5542
same,Chip Fluorescence (mean),[8],0.5719
TFWINPQFKVRLDEID [SeqCAPN11_Boiga_irregularis],Chip Fluorescence (max),[7],1.765
same,Chip Fluorescence (mean),[8],0.8018
TFWINPQIVITLADED [SeqRBMlowT_2933],Chip Fluorescence (max),[5],2.77
same,Chip Fluorescence (mean),[6],0.3523
TFWMNPQFKINLEEED [SeqCAPN11_Salmo_salar],Chip Fluorescence (max),[5],3.077
same,Chip Fluorescence (mean),[6],0.4499
TFWMNPQFKISLEDPD [SeqRBMlowT_4243],Chip Fluorescence (max),[1],3.47
same,Chip Fluorescence (mean),[2],1.839
TFWMNPQFKVKLEEVD [SeqRBMlowT_6848],Chip Fluorescence (max),[7],1.645
same,Chip Fluorescence (mean),[8],1.054
TFWMNPQFRITLDDPD [SeqRBMlowT_69],Chip Fluorescence (max),[5],3.266
same,Chip Fluorescence (mean),[6],0.639
TFWMNPQYKIKLEEPD [SeqRBMlowT_4687],Chip Fluorescence (max),[7],1.8162
same,Chip Fluorescence (mean),[8],0.005772
TFWMNPQYMIKLEEED [SeqCAPN11_Monodelphis_domestica],Chip Fluorescence (max),[1],4.262
same,Chip Fluorescence (mean),[2],0.2921
TFWSNPQFDIALDDDD [SeqRBM_1928],Chip Fluorescence (max),[1],3.897
same,Chip Fluorescence (mean),[2],1.75
TFWSNPQFKIKLEDPD [SeqRBMlowT_7428],Chip Fluorescence (max),[7],1.373
same,Chip Fluorescence (mean),[8],0.3282
TFWSNPQFKIKLEEED [SeqRBMlowT_8507],Chip Fluorescence (max),[3],1.116
same,Chip Fluorescence (mean),[4],-0.2464
TFWSNPQFKIKLEEPD [SeqRBMlowT_2229],Chip Fluorescence (max),[3],1.024
same,Chip Fluorescence (mean),[4],-0.06201
TFWSNPQFKITLDEPD [SeqRBMlowT_5518],Chip Fluorescence (max),[7],1.348
same,Chip Fluorescence (mean),[8],-0.7061
TFWSNPQFKITLEDPD [SeqRBMlowT_3183],Chip Fluorescence (max),[9],0.1109
same,Chip Fluorescence (mean),[10],-0.8373
TFWSNPQFKVSLEEPD [SeqRBMlowT_2967],Chip Fluorescence (max),[7],1.583
same,Chip Fluorescence (mean),[8],-0.5694
TFWSNPQFRITLEDPD [SeqRBMlowT_45],Chip Fluorescence (max),[1],4.041
same,Chip Fluorescence (mean),[2],0.007175
TFWSNPQFRITLEEPD [SeqRBMlowT_9100],Chip Fluorescence (max),[11],0.5324
same,Chip Fluorescence (mean),[12],-0.206
TFWSNPQFTITLAEPD [SeqRBMlowT_8092],Chip Fluorescence (max),[11],0.3751
same,Chip Fluorescence (mean),[12],-0.8998
TFWSNPQYFVTLLESD [SeqRBM_6656],Chip Fluorescence (max),[5],3.032
same,Chip Fluorescence (mean),[6],1.049
TFWSNPQYKITLEEPD [SeqRBMlowT_9677],Chip Fluorescence (max),[5],3.254
same,Chip Fluorescence (mean),[6],0.9673
TFWTNPQFKITLEDPD [SeqRBMlowT_205],Chip Fluorescence (max),[7],1.84
same,Chip Fluorescence (mean),[8],-0.4239
TFWTNPQFKITLEEED [SeqRBMlowT_217],Chip Fluorescence (max),[1],4.393
same,Chip Fluorescence (mean),[2],0.02338
TFWTNPQFKITLEELD [SeqRBMlowT_5669],Chip Fluorescence (max),[5],2.6605
same,Chip Fluorescence (mean),[6],0.5654
TFWTNPQFKITLEEPD [SeqRBMlowT_951],Chip Fluorescence (max),[5],2.6
same,Chip Fluorescence (mean),[6],0.9758
TFWTNPQFKITLEEVD [SeqRBMlowT_4669],Chip Fluorescence (max),[3],1.236
same,Chip Fluorescence (mean),[4],0.1676
TFWTNPQFKITLTDPD [SeqRBMlowT_9027],Chip Fluorescence (max),[3],1.278
same,Chip Fluorescence (mean),[4],-0.7291
TFWTNPQFKITLTEPD [SeqRBMlowT_689],Chip Fluorescence (max),[3],1.036
same,Chip Fluorescence (mean),[4],-0.78
TFWTNPQFKLKLLDPD [SeqRBMlowT_4269],Chip Fluorescence (max),[5],3.1491
same,Chip Fluorescence (mean),[6],0.8579
TFWTNPQFKVKLEDPD [SeqRBMlowT_4293],Chip Fluorescence (max),[11],0.7466
same,Chip Fluorescence (mean),[12],-0.6386
TFWTNPQFKVKLEDVD [SeqRBMlowT_6885],Chip Fluorescence (max),[7],1.498
same,Chip Fluorescence (mean),[8],-0.7469
TFWTNPQFKVKLEEPD [SeqRBMlowT_221],Chip Fluorescence (max),[11],0.5686
same,Chip Fluorescence (mean),[12],-0.7828
TFWTNPQFKVKLEEVD [SeqRBMlowT_284],Chip Fluorescence (max),[3],1.062
same,Chip Fluorescence (mean),[4],-0.1705
TFWTNPQFKVKLTDPD [SeqRBMlowT_2929],Chip Fluorescence (max),[9],-0.3202
same,Chip Fluorescence (mean),[10],-2.672
TFWTNPQFKVSLEEED [SeqRBMlowT_1125],Chip Fluorescence (max),[5],2.918
same,Chip Fluorescence (mean),[6],1.097
TFWTNPQFKVTLEEPD [SeqRBMlowT_2957],Chip Fluorescence (max),[3],1.208
same,Chip Fluorescence (mean),[4],-0.4648
TFWTNPQFNVTLSEAD [SeqRBM_9395],Chip Fluorescence (max),[5],2.777
same,Chip Fluorescence (mean),[6],0.5231
